The source made the active and inactive calls.
What was measured:
[1] = target: T1, Short transient receptor potential channel 4 (Mus musculus, UniProt Q9QUQ5); experiment: mouse TRPC4 channel inhibitors, dose response, cell-based, HEK293 TRPC4/mu-opioid, Fluo-4 calcium (AID 434942); assay type: functional;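 note: potency of inhibitors blocking the TRPC4 calcium response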
T1 sequence (Q9QUQ5 whole entry): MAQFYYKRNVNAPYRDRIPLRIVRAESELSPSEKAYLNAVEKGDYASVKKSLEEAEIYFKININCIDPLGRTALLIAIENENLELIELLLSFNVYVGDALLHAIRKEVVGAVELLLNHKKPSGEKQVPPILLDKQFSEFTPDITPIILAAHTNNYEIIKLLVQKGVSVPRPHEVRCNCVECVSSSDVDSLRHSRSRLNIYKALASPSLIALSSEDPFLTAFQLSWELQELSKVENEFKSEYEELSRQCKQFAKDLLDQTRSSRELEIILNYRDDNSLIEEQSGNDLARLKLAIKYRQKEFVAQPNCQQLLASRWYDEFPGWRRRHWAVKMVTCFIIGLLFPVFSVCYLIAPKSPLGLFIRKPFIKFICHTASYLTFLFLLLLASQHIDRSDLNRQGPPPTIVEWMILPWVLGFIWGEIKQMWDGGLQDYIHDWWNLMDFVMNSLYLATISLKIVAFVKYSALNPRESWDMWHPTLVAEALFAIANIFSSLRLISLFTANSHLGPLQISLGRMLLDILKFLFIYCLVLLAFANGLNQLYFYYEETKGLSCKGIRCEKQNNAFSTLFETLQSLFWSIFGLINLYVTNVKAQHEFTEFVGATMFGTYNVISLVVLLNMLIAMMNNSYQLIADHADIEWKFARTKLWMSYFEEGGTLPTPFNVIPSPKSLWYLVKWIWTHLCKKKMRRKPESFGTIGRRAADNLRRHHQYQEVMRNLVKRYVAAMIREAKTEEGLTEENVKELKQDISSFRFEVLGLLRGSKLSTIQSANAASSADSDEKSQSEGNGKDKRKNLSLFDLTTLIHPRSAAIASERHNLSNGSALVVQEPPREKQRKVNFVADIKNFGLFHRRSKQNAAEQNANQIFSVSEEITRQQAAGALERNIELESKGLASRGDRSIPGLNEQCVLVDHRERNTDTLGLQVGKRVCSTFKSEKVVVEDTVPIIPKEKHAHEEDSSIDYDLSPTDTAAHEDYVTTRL

Escherichia coli = experiment: microbe, parasite or virus in culture
[2] = growth suppression of PTEN-null colon cells, dose response, cell-based, HCT116 PTEN knockout (AID 1047); assay type: functional;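 note: HCT116 colon tumor cells with PTEN knocked out; cells exposed to compound for 60 hours before readout; potency for loss of cell viability measured by luminescence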
[3] = growth suppression of beta-catenin-knockout colon cells, dose response, cell-based, HCT116, human colon tumor (AID 1045); assay type: functional;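 note: HCT116 colon tumor cells with beta catenin knocked out; cells exposed to compound for 60 hours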
Cytochrome P450 2C9 = Cytochrome P450 2C9 (Homo sapiens, UniProt P11712)
Protein RecA = target: T2, Protein RecA (Mycobacterium tuberculosis, UniProt P9WHJ3); experiment: Fluorescence Cell-Free Homogeneous Dose Retest to Identify Inhibitors of RecA-Intein Splicing Activity. [Related pubchem assays (depositor defined):AID2097, AID2223, AID489010, AID492950]; assay type: functional
T2 sequence (P9WHJ3 whole entry): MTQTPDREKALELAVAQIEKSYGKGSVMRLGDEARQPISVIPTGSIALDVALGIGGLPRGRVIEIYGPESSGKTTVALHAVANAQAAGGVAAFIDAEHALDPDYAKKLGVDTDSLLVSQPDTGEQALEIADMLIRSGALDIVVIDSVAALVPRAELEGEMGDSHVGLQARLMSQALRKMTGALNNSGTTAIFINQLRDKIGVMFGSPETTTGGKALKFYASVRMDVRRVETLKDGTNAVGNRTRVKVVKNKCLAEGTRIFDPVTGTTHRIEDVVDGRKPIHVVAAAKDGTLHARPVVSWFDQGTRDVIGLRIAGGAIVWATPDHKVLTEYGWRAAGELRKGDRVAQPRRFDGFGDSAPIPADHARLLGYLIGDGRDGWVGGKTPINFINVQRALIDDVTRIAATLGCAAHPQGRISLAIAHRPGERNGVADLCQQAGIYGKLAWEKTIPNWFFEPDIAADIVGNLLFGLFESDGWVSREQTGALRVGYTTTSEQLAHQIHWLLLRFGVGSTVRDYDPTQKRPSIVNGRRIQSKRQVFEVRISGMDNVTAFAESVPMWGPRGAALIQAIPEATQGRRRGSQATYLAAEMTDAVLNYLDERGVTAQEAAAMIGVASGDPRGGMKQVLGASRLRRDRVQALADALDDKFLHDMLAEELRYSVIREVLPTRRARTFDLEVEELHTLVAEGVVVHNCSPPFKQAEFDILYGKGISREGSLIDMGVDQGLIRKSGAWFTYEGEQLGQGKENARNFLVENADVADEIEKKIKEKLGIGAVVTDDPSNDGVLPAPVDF

[4] = target: T3, Replicative DNA helicase DnaB (Mycobacterium tuberculosis, UniProt P9WMR3); experiment: DnaB intein splicing inhibitors, dose response, biochemical, cell-free fluorescence (AID 449749); assay type: functional
T3 sequence (P9WMR3 whole entry): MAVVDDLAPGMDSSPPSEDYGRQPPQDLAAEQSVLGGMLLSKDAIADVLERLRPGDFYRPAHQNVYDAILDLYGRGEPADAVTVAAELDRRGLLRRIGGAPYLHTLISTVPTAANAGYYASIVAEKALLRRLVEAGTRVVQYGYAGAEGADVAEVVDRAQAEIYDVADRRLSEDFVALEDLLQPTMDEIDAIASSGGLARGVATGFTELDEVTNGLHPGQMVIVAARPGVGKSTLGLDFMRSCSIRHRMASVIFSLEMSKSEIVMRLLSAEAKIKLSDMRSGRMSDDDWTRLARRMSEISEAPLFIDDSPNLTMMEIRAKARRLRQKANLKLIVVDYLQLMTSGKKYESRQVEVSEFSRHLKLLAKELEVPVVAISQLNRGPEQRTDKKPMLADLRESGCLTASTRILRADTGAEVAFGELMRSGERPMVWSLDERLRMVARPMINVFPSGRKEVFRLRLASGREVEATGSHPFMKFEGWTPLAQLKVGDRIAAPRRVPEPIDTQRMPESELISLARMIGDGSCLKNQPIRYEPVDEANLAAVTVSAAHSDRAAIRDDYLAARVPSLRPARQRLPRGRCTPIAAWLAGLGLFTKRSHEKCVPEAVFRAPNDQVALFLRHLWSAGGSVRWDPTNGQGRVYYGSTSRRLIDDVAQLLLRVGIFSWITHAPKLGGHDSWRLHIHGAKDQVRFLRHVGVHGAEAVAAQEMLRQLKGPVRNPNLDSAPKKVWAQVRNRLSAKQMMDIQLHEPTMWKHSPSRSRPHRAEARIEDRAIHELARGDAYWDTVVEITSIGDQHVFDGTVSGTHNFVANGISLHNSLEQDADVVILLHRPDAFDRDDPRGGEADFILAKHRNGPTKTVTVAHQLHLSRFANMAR

[5] = target: Glucose-6-phosphate 1-dehydrogenase (Homo sapiens, UniProt P11413); experiment: human G6PD enzyme inhibitors, dose response, selectivity assay for P. falciparum G6PD inhibitor project, biochemical, fluorescence (AID 504792); assay type: functional
[6] = target: T4, Corticotropin-releasing factor receptor 2/Corticotropin-releasing factor-binding protein (Homo sapiens, UniProt P24387+Q13324); experiment: Dose Response confirmation of uHTS hits for small molecule antagonists of the CRF-binding protein and CRF-R2 receptor complex.; assay type: functional; settings: read-out: IC50_Mean
T4 sequence (Q13324 whole entry): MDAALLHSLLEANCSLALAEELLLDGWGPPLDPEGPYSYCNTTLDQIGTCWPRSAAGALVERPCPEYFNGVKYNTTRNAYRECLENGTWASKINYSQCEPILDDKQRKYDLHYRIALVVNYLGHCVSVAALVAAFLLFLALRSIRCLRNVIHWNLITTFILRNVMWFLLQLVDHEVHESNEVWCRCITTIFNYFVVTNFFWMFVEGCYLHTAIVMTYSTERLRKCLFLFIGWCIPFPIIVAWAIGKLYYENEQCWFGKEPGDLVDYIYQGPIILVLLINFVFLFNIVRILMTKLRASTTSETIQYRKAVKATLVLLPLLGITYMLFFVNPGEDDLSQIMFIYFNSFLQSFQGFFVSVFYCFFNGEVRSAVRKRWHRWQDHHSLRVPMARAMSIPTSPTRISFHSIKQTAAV
T4 sequence (P24387 whole entry): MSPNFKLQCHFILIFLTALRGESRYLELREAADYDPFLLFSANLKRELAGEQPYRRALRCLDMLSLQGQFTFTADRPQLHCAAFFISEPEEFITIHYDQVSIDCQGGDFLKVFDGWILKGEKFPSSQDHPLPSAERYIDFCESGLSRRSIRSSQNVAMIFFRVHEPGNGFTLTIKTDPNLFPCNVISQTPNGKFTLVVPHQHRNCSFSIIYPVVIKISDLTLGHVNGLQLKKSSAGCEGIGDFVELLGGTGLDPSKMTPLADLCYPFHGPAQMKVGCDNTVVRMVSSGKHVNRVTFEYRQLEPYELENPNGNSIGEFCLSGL

Cytochrome P450 3A4 = Cytochrome P450 3A4 (Homo sapiens, UniProt P08684);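 note: CYP3A4 tested as one member of a cytochrome P450 panel screen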
Cytochrome P450 2C19 = Cytochrome P450 2C19 (Homo sapiens, UniProt P33261); experiment: Cytochrome panel assay with activity outcomes. Panel member name: p450-cyp2c19 Compounds with AC50 equal or less than 10 uM are considered active; assay type: functional; settings: read-out: AC50
[7] = target: T4, Corticotropin-releasing factor receptor 2/Corticotropin-releasing factor-binding protein; experiment: activators of CRF receptor 2 with binding protein – uHTS hits, confirmation (AID 602473); assay type: functional; settings: read-out: EC50_Mean
Cytochrome P450 2D6 = Cytochrome P450 2D6 (Homo sapiens, UniProt P10635);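 note: CYP2D6 member of a cytochrome P450 panel assay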
[8] = target: DNA dC->dU-editing enzyme APOBEC-3G (Homo sapiens, UniProt Q9HC16); experiment: Dose Response confirmation of small molecule APOBEC3G DNA Deaminase Inhibitors via a fluorescence-based single-stranded DNA deaminase assay. [Related pubchem assays (depositor defined):AID493012, AID493028]; assay type: functional
DNA dC->dU-editing enzyme APOBEC-3G, sequence (Q9HC16 whole entry): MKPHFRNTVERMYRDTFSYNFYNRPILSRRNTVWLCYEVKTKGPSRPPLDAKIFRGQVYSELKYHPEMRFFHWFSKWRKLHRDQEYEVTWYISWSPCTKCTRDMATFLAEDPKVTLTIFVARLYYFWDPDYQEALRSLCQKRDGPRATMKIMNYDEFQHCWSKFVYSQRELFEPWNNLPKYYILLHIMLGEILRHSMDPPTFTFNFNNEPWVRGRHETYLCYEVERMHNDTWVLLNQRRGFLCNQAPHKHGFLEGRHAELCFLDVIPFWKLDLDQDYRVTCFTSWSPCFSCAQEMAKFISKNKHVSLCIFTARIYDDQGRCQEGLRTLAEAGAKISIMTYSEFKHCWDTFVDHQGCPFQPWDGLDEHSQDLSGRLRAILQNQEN

Cytochrome P450 2C9, sequence (P11712 whole entry): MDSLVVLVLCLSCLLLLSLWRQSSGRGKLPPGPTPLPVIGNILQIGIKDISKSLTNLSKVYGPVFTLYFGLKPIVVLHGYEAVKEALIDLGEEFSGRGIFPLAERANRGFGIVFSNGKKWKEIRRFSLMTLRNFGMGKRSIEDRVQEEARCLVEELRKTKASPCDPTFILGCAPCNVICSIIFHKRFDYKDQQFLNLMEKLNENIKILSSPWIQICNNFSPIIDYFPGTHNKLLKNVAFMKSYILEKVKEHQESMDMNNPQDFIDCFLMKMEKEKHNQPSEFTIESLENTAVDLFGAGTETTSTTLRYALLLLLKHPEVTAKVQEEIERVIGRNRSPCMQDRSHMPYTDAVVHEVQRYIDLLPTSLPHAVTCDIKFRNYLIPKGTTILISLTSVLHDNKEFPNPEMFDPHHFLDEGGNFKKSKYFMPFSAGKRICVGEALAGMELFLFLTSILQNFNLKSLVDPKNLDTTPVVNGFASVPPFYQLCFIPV
Cytochrome P450 2D6, sequence (P10635 whole entry): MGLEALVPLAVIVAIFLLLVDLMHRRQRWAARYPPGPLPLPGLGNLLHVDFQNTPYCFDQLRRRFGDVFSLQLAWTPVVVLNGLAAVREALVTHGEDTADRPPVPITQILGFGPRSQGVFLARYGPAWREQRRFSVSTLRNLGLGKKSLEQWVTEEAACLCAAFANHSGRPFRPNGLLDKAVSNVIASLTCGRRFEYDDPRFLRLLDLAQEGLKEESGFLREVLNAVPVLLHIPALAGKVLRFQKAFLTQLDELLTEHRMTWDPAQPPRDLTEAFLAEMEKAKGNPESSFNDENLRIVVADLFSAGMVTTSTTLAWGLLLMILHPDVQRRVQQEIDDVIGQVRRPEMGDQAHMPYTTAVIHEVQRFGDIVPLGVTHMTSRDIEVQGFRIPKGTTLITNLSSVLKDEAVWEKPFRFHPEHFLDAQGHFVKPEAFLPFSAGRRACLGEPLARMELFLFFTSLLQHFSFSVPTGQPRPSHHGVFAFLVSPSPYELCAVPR
Cytochrome P450 2C19, sequence (P33261 whole entry): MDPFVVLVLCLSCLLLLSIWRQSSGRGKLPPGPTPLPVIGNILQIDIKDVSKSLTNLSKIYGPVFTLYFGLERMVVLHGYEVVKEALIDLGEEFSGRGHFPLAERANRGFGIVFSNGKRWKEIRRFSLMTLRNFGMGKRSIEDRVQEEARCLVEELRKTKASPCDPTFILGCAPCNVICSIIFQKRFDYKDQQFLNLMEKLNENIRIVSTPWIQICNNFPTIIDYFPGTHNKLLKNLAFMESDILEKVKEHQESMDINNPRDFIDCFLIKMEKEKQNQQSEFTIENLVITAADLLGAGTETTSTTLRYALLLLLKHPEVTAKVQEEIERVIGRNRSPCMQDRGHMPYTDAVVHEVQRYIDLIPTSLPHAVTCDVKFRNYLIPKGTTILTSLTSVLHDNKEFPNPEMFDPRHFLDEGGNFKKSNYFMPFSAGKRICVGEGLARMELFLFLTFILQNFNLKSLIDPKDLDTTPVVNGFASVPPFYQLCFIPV
Cytochrome P450 3A4, sequence (P08684 whole entry): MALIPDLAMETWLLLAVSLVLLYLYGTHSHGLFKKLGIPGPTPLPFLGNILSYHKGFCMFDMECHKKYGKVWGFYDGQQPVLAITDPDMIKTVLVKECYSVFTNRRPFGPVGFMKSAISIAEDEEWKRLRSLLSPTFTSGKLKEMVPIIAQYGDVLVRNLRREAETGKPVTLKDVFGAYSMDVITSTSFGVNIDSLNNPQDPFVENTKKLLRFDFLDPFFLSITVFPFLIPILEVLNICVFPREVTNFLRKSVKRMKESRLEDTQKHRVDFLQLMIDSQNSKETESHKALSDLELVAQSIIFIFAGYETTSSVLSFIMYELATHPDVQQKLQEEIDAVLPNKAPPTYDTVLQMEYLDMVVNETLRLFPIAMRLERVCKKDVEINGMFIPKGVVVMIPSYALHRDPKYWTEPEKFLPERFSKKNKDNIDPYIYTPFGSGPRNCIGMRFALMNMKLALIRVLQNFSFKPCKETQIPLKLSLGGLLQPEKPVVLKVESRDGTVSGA
Glucose-6-phosphate 1-dehydrogenase, sequence (P11413 whole entry): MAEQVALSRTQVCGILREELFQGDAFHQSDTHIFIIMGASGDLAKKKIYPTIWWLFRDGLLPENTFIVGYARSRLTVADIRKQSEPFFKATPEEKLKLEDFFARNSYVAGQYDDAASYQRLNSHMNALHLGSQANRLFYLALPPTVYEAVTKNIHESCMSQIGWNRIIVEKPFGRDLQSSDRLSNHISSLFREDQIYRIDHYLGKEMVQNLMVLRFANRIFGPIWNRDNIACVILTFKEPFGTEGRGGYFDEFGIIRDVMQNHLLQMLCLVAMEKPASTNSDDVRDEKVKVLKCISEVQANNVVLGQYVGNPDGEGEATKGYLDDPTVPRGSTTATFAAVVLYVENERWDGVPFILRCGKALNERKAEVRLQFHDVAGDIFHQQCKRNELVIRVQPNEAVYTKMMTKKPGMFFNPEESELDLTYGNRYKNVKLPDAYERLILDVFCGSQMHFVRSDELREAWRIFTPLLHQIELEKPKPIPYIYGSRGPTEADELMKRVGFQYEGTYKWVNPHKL

OCC1(CCCc2ccccc2)CCN(Cc2cc(F)ccc2F)CC1
EC50 [1]: 4.22 µM (active)

Cc1ccc(-c2nc3ccccc3s2)cc1NC(=S)NC(=O)c1cccc2ccccc12
AC50 (Escherichia coli): 36.4 µM (active) | EC50 [2]: 14.1 µM (active) | EC50 [3]: 12.1 µM (active)

C[C@H](Br)C(=O)c1ccc2cc(Br)c3ccccc3c2c1
AC50 (Cytochrome P450 2C9): inconclusive

O=C(c1cccnc1)C1CCCN(Cc2nc(Cc3ccccc3)no2)C1 (stereo unspecified)
AC50 (Escherichia coli): 42 µM (active)

CCNc1ccccc1CP(=O)(c1ccccc1)c1ccccc1O (stereo unspecified)
EC50 (Protein RecA): 1.25 µM (active) | AC50 [4]: 10.4 µM (active) | IC50 [5]: 42.6 µM (inactive)

COc1ccc(NC(=O)C(=O)NNC(=O)c2cccs2)c(OC)c1
IC50 [6]: > 47.1 µM (inactive) | AC50 (Cytochrome P450 3A4): 17.8 µM (inconclusive) | AC50 (Cytochrome P450 2C9): inconclusive | AC50 (Cytochrome P450 2C19): 39.8 µM (inconclusive) | EC50 [7]: > 53 µM (inactive)

COc1ccc2[nH]c(NCc3ccccc3)nc2c1
EC50 [1]: 1.68 µM (active)

CNc1nc(-c2cccnc2)nc2ccccc12
AC50 (Cytochrome P450 2C9): inconclusive | AC50 (Cytochrome P450 2C19): 39.8 µM (inconclusive) | AC50 (Cytochrome P450 2D6): 39.8 µM (inconclusive)

CC(NC(=O)CSc1nc2sc3c(c2c(=O)n1-c1ccccc1)CCCC3)c1ccccc1 (stereo unspecified)
AC50 (Escherichia coli): 107 µM (active)

COc1ccc(NC(=O)CCSc2cc(C)c3ccccc3n2)cc1
AC50 (Cytochrome P450 2C9): inconclusive | AC50 (Cytochrome P450 2D6): 31.6 µM (inconclusive)

Oc1nc(N2CCCCC2)nc2c1CCCC2
AC50 (Escherichia coli): 24.9 µM (active)

CCCCn1c(NCCO)nc2ccccc21
EC50 [1]: 1.68 µM (active)

O=C(Nc1ccc(Cl)c(C(F)(F)F)c1)NC1CC2CCCC(C1)N2C1CC1 (stereo unspecified)
AC50 (Escherichia coli): 25.7 µM (active)

CN(C)/C=N/c1ncc(C(=O)c2ccc3ccccc3c2)s1
AC50 (Cytochrome P450 2C9): inconclusive

Sc1nc2ccccc2n1Cc1ccccc1
IC50 [8]: 37.2 µM (active)
